Assay results from patent US11835522B2, “Sensors for detecting and imaging of cancer metastasis” (Massachusetts Institute of Technology, priority 2019, dated 2023).

Tests used:
CRC liver metastases = assay: 5-FU treatment monitored with PRISM, CRC liver metastasis model; type: in vivo, mice; settings: 5-FU 15 mg/kg i.p.
Description: (§1) After validation of the efficacy of tailored PRISM nanoparticles, these sensors were applied to study how proteolytic activities correlate with changes in the progression of disease over time and in response to drug treatment. In addition, molecular imaging was safely performed for any lesion for multiple times, providing information related to regional heterogeneity in a given tumor. To evaluate PRISM in monitoring treatment responses, mice were grouped into two categories (n=5 each) to allow monitoring the effect of standard chemotherapy 5-FU treatment: one group received drug (15 mg/kg) by i.p. injection (daily injection for 4 days and once every other day till end of study); and the second group received vehicle as control. To monitor therapeutic responses in treating metastases, PRISM was intravenously injected in each group of mice. After 1 hr of sensor injection, urinary reporter level was assayed to track local proteolytic activity, reflecting tumor invasion capacity. At 6 hrs post-injection, mice were scanned using a small animal PET/CT imager for longitudinal assessment of the tumor progression. […] Real-time images were analyzed and standard uptake value of radioactive reporters were quantified using VivoQuant software.

CRC lung metastases = assay: 5-FU treatment monitored with PRISM, CRC lung metastasis model; type: in vivo, mice
Description: as §1
To monitor therapeutic responses when metastases in the CRC lung metastasis model were treated, PRISM was again intravenously injected in two group of mice on a weekly basis. One hour following sensor injection, urinary reporter level was read to track the local proteolytic activity. […] 6 hours after sensor injection, PET/CT were applied to monitor tumor growth or regression, which provides a longitudinal, noninvasive assessment of the efficacy of anti-tumor drug treatment. […] Consistently, the relative lung/liver ratio of PET/CT signal in the cohort that received no treatment was over 3 times higher than that of the cohort treated with chemotherapy (n=5) (FIG. 6G).

O=c1[nH]cc(F)c(=O)[nH]1 [5-FU]
tumor progression / tumor growth vs untreated (CRC liver metastases; started two weeks after tumor inoculation, PET/CT): significantly inhibited tumor progression | urinary reporter level vs non-treated cohort (CRC liver metastases; urine 1 hr after PRISM injection): decreased urinary reporter level | urinary reporter level vs untreated control group (CRC lung metastases; 5-FU treated mice, urine one hour after PRISM injection): Significantly reduced urinary reporter levels | tumor growth vs untreated controls (CRC lung metastases; PET/CT 6 hours after sensor injection): slower tumor growth | relative lung/liver ratio of PET/CT signal, untreated cohort relative to 5-FU treated cohort (CRC lung metastases; n=5, FIG. 6G): over 3 times
